Key:
PCSK9 = PCSK9 lowering in sandwich culture human hepatocytes (SCHH); format: cell-based; conditions: maximum response versus vehicle
Procedure: Test compound in-vitro pharmacokinetic and pharmacodynamic relationships were measured in sandwich culture primary cryopreserved human hepatocytes. Within these studies SCHH cells (BD Biosciences IVT) were thawed at 37° C. then placed on ice, after which the cells were added to pre-warmed (37° C.) In VitroGRO-HT media and centrifuged at 50×g for 3 min. The cell pellet was re-suspended to 0.8×10^6 cells/mL in InVitroGRO-CP plating medium and cell viability determined by trypan blue exclusion. On day 1, hepatocyte suspensions were plated in BioCoat 96-well plates at a density of 80000 cells/well in a volume of 0.1 mL/well. After 18 to 24 hours of incubation at 37° C. in 5% CO2, cells were overlaid with ice-cold 0.25 mg/mL BD Matrigel Matrix Phenol Red-Free in incubation medium at 0.1 mL/well. Cultures were maintained at 37° C. in 5% CO2 in InVitroGRO-HI (FBS-free media), which was replaced every 24 hours and time course treatments were initiated on day 5. Prior to compound treatment cell plates were washed 3 times with 0.1 mL/well InVitroGRO-HI and 0.09 mL of media was added back in preparation for the compound additions. 1 uL of either DMSO or compound DMSO stocks at 30 mM, 10 mM, 3 mM and 1 mM were stamped into 96 well V bottom polypropylene plates. 0.099 mL of media was added to the compound plate and mixed thoroughly before the addition of 0.010 mL from the interim compound plate to the cell plate. […] At the indicated time, 0.08 mL of media was removed from the cell plates and frozen for subsequent analysis of secreted PCSK9 by AlphaLISA and for determination of drug levels in the media by liquid chromatography-tandem mass spectrometry (LC-MS/MS). The remaining media was then aspirated and the cell layers were washed 3× with ice cold Hanks Balanced Salt Solution (HBSS) under shaking conditions to remove the matrigel overlay and plates were then stored at −20° C. for subsequent determination of drug levels in the cells by LC-MS/MS. AlphaLISA determination of PCSK9 protein levels within the conditioned media was performed ultilizing the identical reagents and detection protocols described above for the WT7 cells.

human PCSK9 [1] = experiment: PCSK9 AlphaLISA assay, PCSK9 lowering in WT7 cells; conditions: WT7 cells (Huh7 stably over-expressing human PCSK9); secreted PCSK9 by AlphaLISA; overnight incubation (16-24 h); top concentration 20 μM; read-out: Cell Based PCSK9 IC50
From the text: An in-vitro AlphaLISA assay (Perkin Elmer) was developed in order to quantitate the level of PCSK9 secreted into the cell culture media following compound treatment. To detect and measure PCSK9 protein an in-house generated anti-PCSK9 antibody was coupled to AlphaLISA acceptor beads by an external vendor (PerkinElmer) and a second internally developed anti-PCSK9 antibody with an epiptope distinct from that of the acceptor beads was biotinylated in house. Streptavidin coated-donor beads (Perkin Elmer) are also included in the assay mixture which then binds the biotinylated anti-PCSK9 antibody and in the presence of PCSK9 this donor complex and acceptor beads are brought into close proximity. […] The ability of compound to modulate PCSK9 protein levels in conditioned media by AlphaLISA was assessed in the human hepatocellular carcinoma cell line Huh7, stably over-expressing human PCSK9. […] Following plasmid transfection the stable WT7 clone was identified and maintained under Zeocin selection. Compound screening was performed in 384-well plates where WT7 cells were plated at a density of 7500 cells per well in 20 μL of tissue culture media containing compound in an eleven point, 0.5 log dilution format at a high treatment concentration of 20 μM in a final volume of 0.5% DMSO. In additional to these test compound conditions each screening plate also included wells that contained 20 μM puromycin as a positive assay control defined as high percent effect, HPE, as well as wells containing media in 0.5% DMSO as a negative treatment control defined as zero percent effect, ZPE. After overnight compound incubation (16-24 h) the tissue culture media was collected and an aliquot from each sample was transferred to individual wells of a 384-well white Optiplate (Perkin Elmer). The coupled antibodies and donor beads were added to the assay plates in a buffer composed of 30 mM Tris pH 7.4, 0.02% Tween-20 and 0.02% Casein. Anti-PCSK9 acceptor beads (final concentration of 10 μg/mL) and anti-PCSK9 biotinylated antibody (final concentration of 3 nM) were added and incubated for 30 minutes at room temperature followed by the addition of the streptavidin donor beads (final concentration 40 μg/mL) for an additional 60 minutes. Additionally a standard curve was generated where AlphaLISA reagents were incubated in wells spiked with recombinant human PCSK9 diluted in tissue culture media from 5000 ng/mL to 0.6 ng/mL. […] The test compound data were converted into percent effect, using the ZPE and HPE controls as 0% and 100% activity, respectively. The equation used for converting each well reading into percent effect was:
[formula] IC50 was then calculated and reported as the midpoint in the percent effect curve in molar units and the values are reported under the Cell Based PCSK9 IC50 (μM) column header within Table 1 Biological Data. Additionally, to monitor the selectivity of compound response for PCSK9 the level of a second secreted protein, Transferrin, was measured from the same conditioned media treated with test compound by AlphaLISA. […] To detect and quantify effects on Transferrin 0.01 mL of the culture media was transferred to a 384-well white Optiplate and 0.01 mL of media was added to bring the volume to 0.02 ml. Anti-Transferrin acceptor beads were added to a final concentration of 10 μg/mL, biotinylated anti-Transferrin at 3 nM and streptavidin donor beads at 40 μg/mL. Percent effect and IC50 for Transferrin was computed in a similar manner as that described for PCSK9.

human PCSK9 [2] = experiment: Cell Free PCSK9 Assay (PCSK9-luciferase RNA translated in HeLa cell lysate); format: biochemical; conditions: 30° C. for 45 minutes, luciferase readout, top concentration 100 μM
Procedure: In order to eliminate the permeability barrier inherent to the WT7 and SCHH cell-based assays a cell-free system was also established to access compound activity. […] The construct was then in-vitro transcribed using the MEGAscript T7 Kit (Life Technologies) and RNA subsequently purified incorporating the MEGAclear Kit (Life Technologies) according to manufacturer's protocols. […] Growth was in a 50 L wavebag at a rocker speed of 25 rpm and angle 6.1 with 5% CO2 and 0.2 LPM flow rate with cells harvested at a density of 2-2.5e6/ml. Lysates additionally contained 1 tablet of Roche cOmplete-EDTA protease inhibitors per 50 ml with tris(2-carboxyethyl)phosphine (Biovectra) substituted for dithiothreitol, and were clarified by an additional final centrifugation at 10,000 rpm in a Sorvall SS34 rotor at 4° C. for 10 minutes. Compound screening was performed in 384-well plates in an eleven point, 0.5 log dilution format at a top test compound concentration of 100 μM in a final volume of 0.5% DMSO. […] Upon assay completion 1 μL from each reaction solution was removed and transferred to a second 384-well Optiplate (Perkin Elmer) containing 24 μL of SteadyGlo (Promega) and signal intensity was measured on the Envision (Perkin Elmer) using the enhanced luminescence protocol. […] The test compound data were converted into percent effect, using the ZPE and HPE controls as 0% and 100% activity, respectively, applying Equation 1 above. IC50 was then calculated and reported as the midpoint in the percent effect curve in molar units and the values are reported under the Cell Free PCSK9 IC50 (μM) column header within Table 1 Biological Data.

| SMILES | Sandwich Culture Hepatocyte (SCHH) PCSK9 Lowering (PCSK9; at 6 h at 30 uM) | IC50 (human PCSK9 [1]) | IC50 (human PCSK9 [2]) | Sandwich Culture Hepatocyte (SCHH) PCSK9 Lowering (PCSK9; at 8 h at 30 μM) |
| --- | --- | --- | --- | --- |
| CCC(=O)OC(CC)n1nnc(-c2c(-c3ccc(C(=O)N(c4ncccc4C)[C@@H]4CCCNC4)cc3)cnn2C)n1 (single isomer, unassigned) [Example 47] | 12% at 6 h at 30 uM | > 20 µM | – | – |
| O=C(c1ccc(-c2cnn3cccnc23)cc1)N(c1ncccc1Cl)[C@@H]1CCCNC1 [Example 2, N-(3-chloropyridin-2-yl)-N-[(3R)-piperidin-3-yl]-4-(pyrazolo[1,5-a]pyrimidin-3-yl)benzamide] | – | 1.7 µM | 0.69 µM | – |
| Cn1ncc(-c2ccc(C(=O)N(c3nccc4ccccc34)[C@@H]3CCCNC3)cc2)c1C(=O)O [Example 4, 4-(4-{isoquinolin-1-yl[(3R)-piperidin-3-yl]carbamoyl}phenyl)-1-methyl-1H-pyrazole-5-carboxylic acid] | – | > 20 µM | 3.8 µM | – |
| CCOC(=O)OC(C)OC(=O)c1c(-c2ccc(C(=O)N(c3nccc4ccccc34)[C@@H]3CCCNC3)cc2)cnn1C (stereo partly drawn) [Example 11, 1-[(ethoxycarbonyl)oxy]ethyl 4-(4-{isoquinolin-1-yl[(3R)-piperidin-3-yl]carbamoyl}phenyl)-1-methyl-1H-pyrazole-5-carboxylate] | – | – | 2.1 µM | – |
| CCOC(=O)OC(C)OC(=O)c1c(-c2ccc(C(=O)N(c3nccc4ccn(C)c34)[C@@H]3CCCNC3)cc2)cnn1C (stereo partly drawn) [Example 14, 1-[(ethoxycarbonyl)oxy]ethyl 1-methyl-4-(4-{(1-methyl-1H-pyrrolo[2,3-c]pyridin-7-yl)[(3R)-piperidin-3-yl]carbamoyl}phenyl)-1H-pyrazole-5-carboxylate] | – | 4.5 µM | – | 54% at 8 h at 30 μM |
| CCOC(=O)OC(C)n1nnnc1-c1c(-c2ccc(C(=O)N(c3ncccc3C)[C@@H]3CCCNC3)cc2)cnn1C (some centres unmarked) [Example 21] | 57% at 6 h at 30 uM | > 20 µM | – | – |
| Cn1ncc(-c2ccc(C(=O)N(c3ncccc3Cl)[C@@H]3CCCNC3)cc2)c1C(=O)NS(=O)(=O)C(F)(F)F [Example 22, 4-(4-{(3-chloropyridin-2-yl)[(3R)-piperidin-3-yl]carbamoyl}phenyl)-1-methyl-N-[(trifluoromethyl)sulfonyl]-1H-pyrazole-5-carboxamide] | – | > 20 µM | 5.8 µM | – |
| Cn1ncc(-c2ccc(C(=O)N(c3ncccc3Cl)[C@@H]3CCCNC3)cc2)c1C(=O)Nc1nnn[nH]1 [Example 24, 4-(4-{(3-chloropyridin-2-yl)[(3R)-piperidin-3-yl]carbamoyl}phenyl)-1-methyl-N-(1H-tetrazol-5-yl)-1H-pyrazole-5-carboxamide] | – | > 20 µM | 25.3 µM | – |
| Cn1ncc(-c2ccc(C(=O)N(c3ncccc3Cl)[C@@H]3CCCNC3)cc2)c1C(=O)NO [Example 25, 4-(4-{(3-chloropyridin-2-yl)[(3R)-piperidin-3-yl]carbamoyl}phenyl)-N-hydroxy-1-methyl-1H-pyrazole-5-carboxamide] | – | > 20 µM | 2.97 µM | – |
| Cn1ncc(-c2ccc(C(=O)N(c3ncccc3Cl)[C@@H]3CCCNC3)cc2)c1-c1nn[nH]n1 [Example 26, N-(3-chloropyridin-2-yl)-4-[1-methyl-5-(2H-tetrazol-5-yl)-1H-pyrazol-4-yl]-N-[(3R)-piperidin-3-yl]benzamide] | – | > 20 µM | 5.75 µM | – |
| Cn1ncc(-c2ccc(C(=O)N(c3ncccc3Cl)[C@@H]3CCCNC3)cc2)c1C(=O)NS(C)(=O)=O [Example 27, 4-(4-{(3-chloropyridin-2-yl)[(3R)-piperidin-3-yl]carbamoyl}phenyl)-1-methyl-N-(methylsulfonyl)-1H-pyrazole-5-carboxamide] | – | > 20 µM | 14.3 µM | – |
| Cc1cccnc1N(C(=O)c1ccc(-c2cnn(C)c2C(=O)NS(C)(=O)=O)cc1)[C@@H]1CCCNC1 [Example 28, 1-methyl-4-(4-{(3-methylpyridin-2-yl)[(3R)-piperidin-3-yl]carbamoyl}phenyl)-N-(methylsulfonyl)-1H-pyrazole-5-carboxamide] | – | > 20 µM | 16.8 µM | – |
| CCOC(=O)OC(C)N(C(=O)c1c(-c2ccc(C(=O)N(c3ncccc3C)[C@@H]3CCCNC3)cc2)cnn1C)S(C)(=O)=O (stereo partly drawn) [Example 29, ethyl 1-[{[1-methyl-4-(4-{(3-methylpyridin-2-yl)[(3R)-piperidin-3-yl]carbamoyl}phenyl)-1H-pyrazol-5-yl]carbonyl}methylsulfonyl)amino]ethyl carbonate] | 72% at 6 h at 30 uM | > 20 µM | – | – |
| CCOC(=O)O[C@@H](C)n1nnc(-c2c(-c3ccc(C(=O)N(c4ncccc4C)[C@@H]4CCCNC4)cc3)cnn2C)n1 [Example 30, ethyl (1S)-1-{5-[1-methyl-4-(4-{(3-methylpyridin-2-yl)[(3R)-piperidin-3-yl]carbamoyl}phenyl)-1H-pyrazol-5-yl]-2H-tetrazol-2-yl}ethyl carbonate] | – | > 16.7 µM | – | 11% at 8 h at 30 uM |
| CCOC(=O)O[C@H](C)n1nnc(-c2c(-c3ccc(C(=O)N(c4ncccc4C)[C@@H]4CCCNC4)cc3)cnn2C)n1 [Example 31, ethyl (1R)-1-{5-[1-methyl-4-(4-{(3-methylpyridin-2-yl)[(3R)-piperidin-3-yl]carbamoyl}phenyl)-1H-pyrazol-5-yl]-2H-tetrazol-2-yl}ethyl carbonate] | – | > 20 µM | – | 19% at 8 h at 30 uM |

Source: patent US9227956B2 (Pfizer Inc., priority 2013, dated 2016)
